Measurements: ChEMBL document CHEMBL1147911, “Synthesis and evaluation of novel benzimidazole derivative [Bz-Im] and its radio/biological studies” (Bioorg Med Chem Lett, 2007)

Tests used:
[1] = target: T1, Cholecystokinin receptor type A (Cavia porcellus, UniProt Q63931); test: Displacement of [125I](BH)CCK8 from Guinea pig CCK1 after 30 mins by receptor binding assay
T1 sequence (Q63931 whole entry): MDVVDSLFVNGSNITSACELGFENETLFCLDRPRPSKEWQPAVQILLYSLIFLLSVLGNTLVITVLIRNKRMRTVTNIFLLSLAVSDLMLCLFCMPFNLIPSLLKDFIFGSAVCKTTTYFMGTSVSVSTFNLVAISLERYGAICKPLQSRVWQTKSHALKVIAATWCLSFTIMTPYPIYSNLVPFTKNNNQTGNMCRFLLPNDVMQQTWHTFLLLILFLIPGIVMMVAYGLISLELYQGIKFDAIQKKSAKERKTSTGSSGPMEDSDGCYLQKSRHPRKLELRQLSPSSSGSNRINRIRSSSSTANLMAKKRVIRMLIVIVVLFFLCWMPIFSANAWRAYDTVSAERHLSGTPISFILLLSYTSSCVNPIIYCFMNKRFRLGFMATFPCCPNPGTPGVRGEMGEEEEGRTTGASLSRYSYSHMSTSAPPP

[2] = target: T2, Cholecystokinin receptor type A (Rattus norvegicus, UniProt P30551); test: Displacement of [125I](BH)CCK8 from rat CCK1 after 30 mins by receptor binding assay
T2 sequence (P30551 whole entry): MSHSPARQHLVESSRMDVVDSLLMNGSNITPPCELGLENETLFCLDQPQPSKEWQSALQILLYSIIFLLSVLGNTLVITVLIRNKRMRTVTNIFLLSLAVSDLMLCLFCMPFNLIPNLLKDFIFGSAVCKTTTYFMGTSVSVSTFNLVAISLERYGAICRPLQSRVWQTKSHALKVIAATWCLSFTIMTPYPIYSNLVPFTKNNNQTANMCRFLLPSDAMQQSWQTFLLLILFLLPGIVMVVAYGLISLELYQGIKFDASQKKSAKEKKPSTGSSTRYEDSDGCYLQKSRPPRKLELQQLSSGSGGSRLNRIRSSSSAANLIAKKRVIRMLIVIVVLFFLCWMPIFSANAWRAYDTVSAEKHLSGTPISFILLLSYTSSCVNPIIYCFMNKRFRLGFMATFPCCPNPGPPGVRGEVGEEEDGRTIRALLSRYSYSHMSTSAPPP

Blood [3] = test: Biodistribution in Albino mouse blood at 10 uCi after 1 hr; type: ADME, organism-based; details: in vivo
Aspergillus flavus [4] = test: Antifungal activity against Aspergillus flavus at 10 ug/ml after seven days by agar plate method; type: functional; details: 168 h
Spleen [5] = test: Biodistribution in Albino mouse spleen at 10 uCi after 2 hr; type: ADME, organism-based; details: in vivo
Brain [6] = test: Biodistribution in Albino mouse brain at 10 uCi after 6 hr; type: ADME, organism-based; details: in vivo
Aspergillus niger [7] = test: Antifungal activity against Aspergillus niger at 10 ug/ml after seven days by agar plate method; type: functional; details: 168 h
Aspergillus flavus [8] = test: Antifungal activity against Aspergillus flavus at 50 ug/ml after seven days by agar plate method; type: functional; details: 168 h
Intestine [9] = test: Biodistribution in Albino mouse intestine at 10 uCi after 4 hr; type: ADME, organism-based; details: in vivo
Heart [10] = test: Biodistribution in Albino mouse heart at 10 uCi after 4 hr; type: ADME, organism-based; details: in vivo
Liver [11] = test: Biodistribution in Albino mouse liver at 10 uCi after 8 hr; type: ADME, organism-based; details: in vivo
Aspergillus niger [12] = test: Antifungal activity against Aspergillus niger at 50 ug/ml after seven days by agar plate method; type: functional; details: 168 h
Heart [13] = test: Biodistribution in Albino mouse heart at 10 uCi after 2 hr; type: ADME, organism-based; details: in vivo
Blood [14] = test: Biodistribution in Albino mouse blood at 10 uCi after 2 hr; type: ADME, organism-based; details: in vivo
Brain [15] = test: Biodistribution in Albino mouse brain at 10 uCi after 4 hr; type: ADME, organism-based; details: in vivo
Kidney [16] = test: Biodistribution in Albino mouse kidney at 10 uCi after 2 hr; type: ADME, organism-based; details: in vivo
Blood [17] = test: Biodistribution in Albino mouse blood at 10 uCi after 6 hr; type: ADME, organism-based; details: in vivo
Intestine [18] = test: Biodistribution in Albino mouse intestine at 10 uCi after 1 hr; type: ADME, organism-based; details: in vivo
Kidney [19] = test: Biodistribution in Albino mouse kidney at 10 uCi after 1 hr; type: ADME, organism-based; details: in vivo
Stomach [20] = test: Biodistribution in Albino mouse stomach at 10 uCi after 4 hr; type: ADME, organism-based; details: in vivo
Aspergillus niger [21] = test: Antifungal activity against Aspergillus niger at 20 ug/ml after seven days by agar plate method; type: functional; details: 168 h
Kidney [22] = test: Biodistribution in Albino mouse kidney at 10 uCi after 8 hr; type: ADME, organism-based; details: in vivo
Stomach [23] = test: Biodistribution in Albino mouse stomach at 10 uCi after 1 hr; type: ADME, organism-based; details: in vivo
Spleen [24] = test: Biodistribution in Albino mouse spleen at 10 uCi after 1 hr; type: ADME, organism-based; details: in vivo
Heart [25] = test: Biodistribution in Albino mouse heart at 10 uCi after 8 hr; type: ADME, organism-based; details: in vivo
Liver [26] = test: Biodistribution in Albino mouse liver at 10 uCi after 6 hr; type: ADME, organism-based; details: in vivo
Spleen [27] = test: Biodistribution in Albino mouse spleen at 10 uCi after 4 hr; type: ADME, organism-based; details: in vivo
Blood [28] = test: Biodistribution in Albino mouse blood at 10 uCi after 8 hr; type: ADME, organism-based; details: in vivo
Stomach [29] = test: Biodistribution in Albino mouse stomach at 10 uCi after 8 hr; type: ADME, organism-based; details: in vivo
Aspergillus flavus [30] = test: Antifungal activity against Aspergillus flavus at 20 ug/ml after seven days by agar plate method; type: functional; details: 168 h
Brain [31] = test: Biodistribution in Albino mouse brain at 10 uCi after 2 hr; type: ADME, organism-based; details: in vivo
Blood [32] = test: Biodistribution in Albino mouse blood at 10 uCi after 4 hr; type: ADME, organism-based; details: in vivo
Intestine [33] = test: Biodistribution in Albino mouse intestine at 10 uCi after 6 hr; type: ADME, organism-based; details: in vivo
Heart [34] = test: Biodistribution in Albino mouse heart at 10 uCi after 1 hr; type: ADME, organism-based; details: in vivo
Liver [35] = test: Biodistribution in Albino mouse liver at 10 uCi after 4 hr; type: ADME, organism-based; details: in vivo
Kidney [36] = test: Biodistribution in Albino mouse kidney at 10 uCi after 6 hr; type: ADME, organism-based; details: in vivo
Brain [37] = test: Biodistribution in Albino mouse brain at 10 uCi after 8 hr; type: ADME, organism-based; details: in vivo
Spleen [38] = test: Biodistribution in Albino mouse spleen at 10 uCi after 6 hr; type: ADME, organism-based; details: in vivo
Spleen [39] = test: Biodistribution in Albino mouse spleen at 10 uCi after 8 hr; type: ADME, organism-based; details: in vivo
Liver [40] = test: Biodistribution in Albino mouse liver at 10 uCi after 2 hr; type: ADME, organism-based; details: in vivo
Kidney [41] = test: Biodistribution in Albino mouse kidney at 10 uCi after 4 hr; type: ADME, organism-based; details: in vivo
Intestine [42] = test: Biodistribution in Albino mouse intestine at 10 uCi after 8 hr; type: ADME, organism-based; details: in vivo
Liver [43] = test: Biodistribution in Albino mouse liver at 10 uCi after 1 hr; type: ADME, organism-based; details: in vivo
Heart [44] = test: Biodistribution in Albino mouse heart at 10 uCi after 6 hr; type: ADME, organism-based; details: in vivo
Stomach [45] = test: Biodistribution in Albino mouse stomach at 10 uCi after 6 hr; type: ADME, organism-based; details: in vivo
Stomach [46] = test: Biodistribution in Albino mouse stomach at 10 uCi after 2 hr; type: ADME, organism-based; details: in vivo
Intestine [47] = test: Biodistribution in Albino mouse intestine at 10 uCi after 2 hr; type: ADME, organism-based; details: in vivo

Question: Which results are given for `O=C1c2ccccc2C(=O)N1Cc1c(O)ccc2c(/C=C/c3ccc(-c4ccccc4)cc3)cc3nc4ccccc4n3c12`?
Answer: IC50 [1]: 16400 nM; IC50 [2]: 197 nM

Question: Which results are given for `O=C1c2ccccc2C(=O)N1Cc1c(O)ccc2c(/C=C/c3ccc(O)cc3)cc3nc4ccccc4n3c12`?
Answer: Drug uptake (Blood [3]): 2.5 % ID/g; inhibition at 10 µg/mL (Aspergillus flavus [4]): 60.8%; Drug uptake (Spleen [5]): 15 % ID/g; Drug uptake (Brain [6]): 1 % ID/g; inhibition at 10 µg/mL (Aspergillus niger [7]): 60.7%; inhibition at 50 µg/mL (Aspergillus flavus [8]): 92.1%; Drug uptake (Intestine [9]): 0.2 % ID/g; Drug uptake (Heart [10]): 0.2 % ID/g; Drug uptake (Liver [11]): 15 % ID/g; IC50 [1]: 2940 nM; inhibition at 50 µg/mL (Aspergillus niger [12]): 83.6%; Drug uptake (Heart [13]): 0.5 % ID/g; Drug uptake (Blood [14]): 2 % ID/g; Drug uptake (Brain [15]): 0.45 % ID/g; Drug uptake (Kidney [16]): 6 % ID/g; Drug uptake (Blood [17]): 2.5 % ID/g; Drug uptake (Intestine [18]): 0.5 % ID/g; Drug uptake (Kidney [19]): 5.5 % ID/g; Drug uptake (Stomach [20]): 3 % ID/g; inhibition at 20 µg/mL (Aspergillus niger [21]): 83.2%; Drug uptake (Kidney [22]): 4.5 % ID/g; Drug uptake (Stomach [23]): 1 % ID/g; Drug uptake (Spleen [24]): 10 % ID/g; Drug uptake (Heart [25]): 0.2 % ID/g; Drug uptake (Liver [26]): 15 % ID/g; Drug uptake (Spleen [27]): 17 % ID/g; Drug uptake (Blood [28]): 2.5 % ID/g; Drug uptake (Stomach [29]): 7.5 % ID/g; inhibition at 20 µg/mL (Aspergillus flavus [30]): 73.4%; Drug uptake (Brain [31]): 0.2 % ID/g; Drug uptake (Blood [32]): 2 % ID/g; Drug uptake (Intestine [33]): 1 % ID/g; Drug uptake (Heart [34]): 0.8 % ID/g; Drug uptake (Liver [35]): 14 % ID/g; Drug uptake (Kidney [36]): 4.5 % ID/g; Drug uptake (Brain [37]): 1 % ID/g; Drug uptake (Spleen [38]): 16 % ID/g; Drug uptake (Spleen [39]): 16 % ID/g; Drug uptake (Liver [40]): 23 % ID/g; Drug uptake (Kidney [41]): 3 % ID/g; Drug uptake (Intestine [42]): 1 % ID/g; Drug uptake (Liver [43]): 16 % ID/g; IC50 [2]: 665 nM; Drug uptake (Heart [44]): 0.1 % ID/g; Drug uptake (Stomach [45]): 7 % ID/g; Drug uptake (Stomach [46]): 2 % ID/g; Drug uptake (Intestine [47]): 0.5 % ID/g
